Results taken from paper PMC3822689 (Journal of Cellular and Molecular Medicine, 2012).

How the values were obtained:
[1] = tested on: CBR (central benzodiazepine binding sites, rat cerebral cortex membranes); test: [3H] Ro 15-1788 binding, central benzodiazepine receptor; settings: 10 and 100 μM
[2] = molecular target: PBR (peripheral benzodiazepine binding sites, rat kidney mitochondrial membranes) (Rattus norvegicus, UniProt P16257); test: [3H]-PK 11195 binding, peripheral benzodiazepine receptor; settings: 10 and 100 μM
PBR (peripheral benzodiazepine binding sites, rat kidney mitochondrial membranes), sequence (P16257 whole entry): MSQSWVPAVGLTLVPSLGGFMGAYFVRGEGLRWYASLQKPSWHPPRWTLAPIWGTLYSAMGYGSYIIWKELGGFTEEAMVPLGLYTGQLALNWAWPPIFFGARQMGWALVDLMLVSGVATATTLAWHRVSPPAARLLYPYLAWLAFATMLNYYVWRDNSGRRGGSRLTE

| SMILES | affinity for CBR [1] | affinity for PBR [2] |
| --- | --- | --- |
| CCOC(=O)c1ncn2c1CN(C)C(=O)c1cc(F)ccc1-2 [Ro 15–1788] | high affinity | – |
| CCC(C)N(C)C(=O)c1cc2ccccc2c(-c2ccccc2Cl)n1 (stereo not shown) [PK 11195, 1-(2-chlorophenyl)-N-methyl-N-(1-methylpropyl)-3-isoquinoline carboxamide] | – | high affinity |
| CN1C(=O)CN=C(c2ccccc2)c2cc(Cl)ccc21 [diazepam] | high affinity | high affinity |
